Patent US20110178171A1, “COMPOUNDS FOR CANCER THERAPY” (China Medical University, priority 2010, published 2011)
pIC50: −log10 of the molar value.

Tests used:
PC3 cells = assay: MTT growth inhibition assay, PC3; format: cell-based, human; settings: for Viability (%) PC-3: 24 h (Table 2)
Protocol: The LNCaP (androgen-sensitive), PC3 (androgen in-dependent), human prostate cancer and normal human fibroblast 3T3 were obtained from American Type Culture Collection (Manassas, Va.) were maintained with RPMI 1640 medium containing 10% FBS and […] each of penicillin and streptomycin at […] in a humidified atmosphere with 5% CO2.
The viability of the cells after treated with various chemicals was evaluated using MTT assay preformed in triplicate (Mosmann T. 1983. Rapid colorimetric assay for cellular growth and survival: application to proliferation and cytotoxicity assays”. Journal of immunological methods. 65 (1-2): 55-63). Briefly, the cancer cells (5×10^3) were incubated in 96-well plates containing […] of the culture medium. Cells were permitted to adhere for 12-18 h then washed with phosphate buffered saline (PBS). Solutions were always prepared fresh by dissolving 0.2% DMSO or K8 in culture medium and added to various kind of tumor. After 48 h of exposure, K8 containing medium was removed, washed with PBS and replaced by fresh medium. The cells in each well were then incubated in culture medium with […] MTT for 4 h. After the medium were removed, […] of DMSO and […] of glycine buffer (0.1 M glycine, 0.1 M NaCl, pH 10.5) were added to each well. Absorbance at 570 nm of the maximum was detected by a PowerWave X Microplate ELISA Reader (Bio-TeK Instruments, Winoski, Vt.). The absorbance for DMSO treated cells was considered as 100%. The results were determined by three independent experiments.
Cytotoxicities of Z-K8 (Isochaihulactone) on LNCaP (AR-dependent), and PC3 (AR-independent) tumor cell line were examined in the manner described above. […]

[1] = test system: liver cancer cell line J5; assay: MTT growth inhibition assay, J5; format: cell-based; settings: J5, hepatocarcinoma
Protocol: The results were determined by three independent experiments.
Besides, the above assay was also conducted on gastric cancer cell line NCI-N87, liver cancer cell line HepG2 and J5, lung cancer cell line A549, and oral cancer cell line OECM-1.

LNCaP cells = assay: Cell cycle analysis by flow cytometry; format: cell-based, human; settings: 24 h
Protocol: The cell cycle was determined by flow cytometry with DNA staining to reveal the total amount of DNA. Approximately 5×10^5 of cells were incubated in various concentration of isochaihulactone for the indicated time. Cells were harvested by treating the cells with trypsin/EDTA. The cells were collected, washed with PBS, fixed with cold 70% ethanol overnight, and then stained with a solution containing […] PI, 10 mg/ml RNase A, and 0.1% Triton X-100 for 1 h in the dark. The cells will then pass through FACScan flow cytometer (equipped with a 488-nmargon laser) to measure the DNA content. The data was obtained and analyzed with CellQuest 3.0.1 (Becton Dickinson, Franklin Lakes, N.J.) and ModFitLT V2.0 software. The results are shown Table 4 and FIG. 4.
Assays were carried out to examine the effect of Z-K8 in inducing G2/M phase arrest and apoptosis in LNCaP cells. Briefly, the cells were treated with different concentrations of Z-K8 (ranging from 0.25 to 2 μM) for 24 h. The cell cycle analysis was done according to the method described above. As shown in FIG. 4 and Table 4, Z-K8 induced cell cycle G2/M arrest in LNCaP cells.

COc1cc(/C=C2\C(=O)OCC2Cc2ccc3c(c2)OCO3)cc(OC)c1OC (racemic) [Z-K8, Racemic (Z)-β-(3′,4′-Methylenedioxybenzyl)-α-(3′,4′,5′-trimethoxybenzylidene)-γ-butyrolactone]
Viability (%) PC-3 (PC3 cells; 0.625 μM): 92.0%
Viability (%) PC-3 (PC3 cells; 1.25 μM): 84.5%
Viability (%) PC-3 (PC3 cells; 2.5 μM): 74.9%
Viability (%) PC-3 (PC3 cells; 5 μM): 44.9%
Viability (%) PC-3 (PC3 cells; 10 μM): 28.3%
pIC50 (PC3 cells; PC3, androgen-independent prostate adenocarcinoma): 4.00
pIC50 [1]: 5.60
Cells in phase (%) G0/G1 (LNCaP cells; 0.25 μM): 63.56%
Cells in phase (%) G2/M (LNCaP cells; 0.25 μM): 18.35%
Cells in phase (%) S (LNCaP cells; 0.25 μM): 5.42%
Cells in phase (%) Sub-G1 (LNCaP cells; 0.25 μM): 0.48%
Cells in phase (%) G0/G1 (LNCaP cells; 0.5 μM): 48.30%
Cells in phase (%) G2/M (LNCaP cells; 0.5 μM): 24.99%
Cells in phase (%) S (LNCaP cells; 0.5 μM): 6.61%
Cells in phase (%) Sub-G1 (LNCaP cells; 0.5 μM): 3.24%
Cells in phase (%) G0/G1 (LNCaP cells; 1 μM): 57.27%
Cells in phase (%) G2/M (LNCaP cells; 1 μM): 10.16%
Cells in phase (%) S (LNCaP cells; 1 μM): 4.70%
Cells in phase (%) Sub-G1 (LNCaP cells; 1 μM): 8.19%
Cells in phase (%) G0/G1 (LNCaP cells; 2 μM): 22.25%
Cells in phase (%) G2/M (LNCaP cells; 2 μM): 43.92%
Cells in phase (%) S (LNCaP cells; 2 μM): 8.39%
Cells in phase (%) Sub-G1 (LNCaP cells; 2 μM): 5.73%
